From PMC10396310, “A succinate/SUCNR1-brush cell defense program in the tracheal epithelium” (Science Advances, 2023) come the findings set out here.

As a reminder, the EC50 is the midpoint of the concentration-response curve. A lower EC50 goes with a more potent agent.

The target of the assay is T1, succinate receptor 1 (SUCNR1; GPR91) (Mus musculus, UniProt Q99MT6).
T1 construct: native receptor in tracheal TRPM5+ brush cells (ex vivo whole mount)
T1 sequence (Q99MT6 1-317): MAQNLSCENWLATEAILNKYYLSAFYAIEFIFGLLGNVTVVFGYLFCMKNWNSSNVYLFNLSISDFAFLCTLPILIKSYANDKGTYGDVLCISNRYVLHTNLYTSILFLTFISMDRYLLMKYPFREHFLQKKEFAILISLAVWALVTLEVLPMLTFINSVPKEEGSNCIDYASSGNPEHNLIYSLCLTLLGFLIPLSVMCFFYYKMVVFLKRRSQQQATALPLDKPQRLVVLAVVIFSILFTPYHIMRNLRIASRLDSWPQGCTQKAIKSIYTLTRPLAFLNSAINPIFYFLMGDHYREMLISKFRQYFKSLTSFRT
Description: Ca2+ imaging (GCaMP6f) concentration-response in brush cells; Ca2+ wave lost in Sucnr1-/- mice.

`O=C(O)CCC(=O)O` [succinate] yielded an EC50 of 335 ± 5 µM.
